# In patent US7211402B2, “Transcription factor coactivator protein, p/CIP” (The Regents of the University of California, priority 1997, dated 2007):
# “Also recorded” adds a separate entry of the source.
# T1: liganded RAR and NCoA-1 (Homo sapiens, UniProt P10276)
# T1 construct: GST-RAR (143–462), GST-ER(251–595) and GST-CBP(2058–2170) were generated as described; made in house; NCoA-1 was made by in vitro translation
# T1 sequence (P10276 143-462): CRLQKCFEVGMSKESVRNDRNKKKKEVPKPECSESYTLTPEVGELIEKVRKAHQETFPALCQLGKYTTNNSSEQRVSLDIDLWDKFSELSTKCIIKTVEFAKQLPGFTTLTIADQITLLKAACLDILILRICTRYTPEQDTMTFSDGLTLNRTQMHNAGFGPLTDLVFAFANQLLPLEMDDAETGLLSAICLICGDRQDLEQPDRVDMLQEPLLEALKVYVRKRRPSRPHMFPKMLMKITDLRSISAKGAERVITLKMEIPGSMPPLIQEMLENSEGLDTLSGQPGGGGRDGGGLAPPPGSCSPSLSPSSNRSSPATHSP
# T2: estrogen receptor ligand binding domain (yeast two-hybrid bait, liganded) (UniProt P03372 251-595)
# T2 construct: Tested with estradiol (10^-6 M); also called liganded estrogen receptor (LBD); ER
# T2 sequence (looked up): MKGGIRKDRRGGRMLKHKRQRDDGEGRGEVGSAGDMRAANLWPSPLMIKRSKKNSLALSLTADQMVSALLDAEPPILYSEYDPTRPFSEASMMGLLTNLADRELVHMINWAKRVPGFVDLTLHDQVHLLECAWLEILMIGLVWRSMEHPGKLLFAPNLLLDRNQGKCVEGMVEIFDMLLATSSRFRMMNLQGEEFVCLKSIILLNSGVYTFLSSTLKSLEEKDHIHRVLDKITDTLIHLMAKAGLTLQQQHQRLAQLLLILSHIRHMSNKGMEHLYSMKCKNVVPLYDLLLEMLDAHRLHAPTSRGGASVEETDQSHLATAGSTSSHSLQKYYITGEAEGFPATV
# B1: NCoA-1 (aa 635-760) with LCD2 mutation (amino acids 695 to 698, HRLL->AAAA), yeast two-hybrid prey (other, UniProt P70365 635-760, looked up)
# chain: HKLVQLLTTTAEQQLRHADIDTSCKDVLSCTGTSSSASSNPSGGTCPSSHSSLTERHKILAAAAQEGSPSDITTLSVEPEKKDSVPASTAVSVSGQSQGSASIKLELDAAKKKESKDHQLLRYLLD
# notes: also called Mutations of the LCD2 motif (RLHRLL->RLAAAA); not shown: B42 fusion partner of prey vector pJG 4-5
# B2: p/CIP (aa 947–1084): 137 amino acid region of p/CIP (aa 947–1084) containing the core CBP interaction domain (protein, UniProt O09000 947-1084, looked up, fragment)
# chain: VPTLPLRSNRLPGARPSLQQQQQQQQQQQQQQQQQQQQQQQMLQMRTGEIPMGMGVNPYSPAVQSNQPGSWPEGMLSMEQGPHGSQNRPLLRNSLDDLLGPPSNAEGQSDERALLDQLHTFLSNTDATGLEEIDRALG
# How the values were obtained:
# [1] = tested on: STAT-dependent (interferon γ-dependent) transcription; experiment: Single cell microinjection assay, interferon γ-dependent GAS/LacZ reporter; format: cell-based, rat; conditions: for effect on interferon γ-dependent (STAT) gene activation: microinjection into Rat-1 cells, GAS/LacZ reporter
# Method: (§1) Insulin-responsive Rat-1 fibroblasts were seeded on acid washed glass coverslips at subconfluent density and grown in MNE/F12 medium supplemented with 10% fetal bovine serum, gentamicin and methotrexate. Prior to the injection, the cells were rendered quiescent by incubation in serum-free medium for 24–36 hr. Plasmids were injected into the nuclei of cells at a final concentration of […]. Peptides were injected at a concentration of 200 mM. Either preimmune IgG of the appropriate species or antibodies directed against p/CIP, NCoA-1 or NCoA-2 were co-injected and allowed the unambiguous identification of the injected cells.
# (§2) Microinjections were carried out using an Eppendorf semiautomated microinjection system mounted on an inverted Zeiss microscope. Approximately 1 hr after injection, the cells were stimulated, where indicated, with the appropriate ligand. In the case of rescue experiments, the cells were stimulated with ligand 6 hr after injection, to allow protein expression. After overnight incubation, the cells were fixed, then stained to detect injected IgG and β-galactosidase expression (Rose et al., J. Cell. Biol. 119:1405–1411 (1992), which is incorporated herein by reference; Kamei et al., supra, 1996). Injected cells were identified by staining with tetramethylrhodamine-conjugated donkey anti-rabbit IgG.
# [2] = tested on: RAR-dependent transcription; experiment: Single cell microinjection assay, retinoic acid-dependent RARE/LacZ reporter; format: cell-based, rat; conditions: for effect on retinoic acid-dependent gene activation by RAR: microinjection into Rat-1 cells
# Method: as §1, §2
# liganded RAR and NCoA-1 = biological target: T1, liganded RAR and NCoA-1; experiment: In vitro competition assay, GST-RAR interaction with in vitro translated NCoA-1; format: binding; conditions: excess peptide; 35S-labeled NCoA interaction domain fragment (aa 635–760); TTNPB 1 μM
# Method: GST-RAR (143–462), GST-ER(251–595) and GST-CBP(2058–2170) were generated as described (Kamei et al., supra, 1996). 25 ul of GST SEPHAROSE beads containing 10 ug of the GST recombinant proteins were incubated in the presence or absence of the appropriate ligand for 30 min at room temperature, followed by the addition of 1 mg of cell extract and incubated for an additional 1 hr at 4° C. The complexes were then centrifuged, washed three times in NET-N buffer, separated by SDS-PAGE and western blotted with the appropriate antibodies (1 ug/ml). For co-immunoprecipitation assays, 1 mg of cell extract was incubated in the presence of 2 ug of p/CIP or NCoA antibody for 2 hr at 4° C. The immune complexes were precipitated with protein A SEPHAROSE (50% w/v). Protein complexes were separated by SDS-PAGE (Laemmle, Nature 227:680–685 (1970), which is incorporated herein by reference) and western blotted using 1 ug/ml of an anti-CBP/P300 monoclonal antibody (UBI). For in vitro competition assays, the indicated peptides were incubated with in vitro translated NCoA-1 prior to GST interaction with RAR.
# [3] = biological target: T2, estrogen receptor ligand binding domain …; experiment: yeast two-hybrid
# Text: EGY 48 cells were transformed with the lac Z reporter plasmid pSH 18–34 with the appropriate bait and prey vectors and plated out on -Ura-His-Trp medium containing 2% galactose.
# [4] = tested on: SP-1 or CMV dependent transcription; experiment: Single cell microinjection assay, control promoters lacking nuclear receptor response elements; format: cell-based; conditions: microinjection into Rat-1 cells
# Method: as §1, §2
# [5] = tested on: TPA-dependent transcriptional activation; experiment: Single cell microinjection assay, TPA-dependent reporter; format: cell-based; conditions: microinjection into Rat-1 cells
# Method: as §1, §2
# [6] = simultaneous retinoic acid and interferon γ
molecule,measurement,setting,value
CBP N′-P1: synthetic peptide of the N-terminal 22 amino acids of CBP; CBP N′-P1 (aa 1–19) (MAENLLDGPPNPKRAKLSS),effect on interferon γ-dependent (STAT) gene activation,[1],markedly inhibited
same,effect on retinoic acid dependent inhibition of the GAS/LacZ reporter,[1]; [6],had no effect
same,effect on retinoic acid-dependent gene activation by RAR,[2],without effect
same,effect on interferon γ inhibition of RAR-dependent transcription,[2]; [6],relieved inhibition; also recorded: fully abolished
LCD4: 19-mer peptide corresponding to NCoA-1 LCD4 (aa 907–926),effect on interferon γ-dependent (STAT) gene activation,[1],does not impair
same,effect on retinoic acid-dependent gene activation by RAR,[2],can block
same,effect on retinoic acid-dependent gene activation by RAR,[2]; listed as NCoA-1 LCD4,inhibits
"LCD 1: peptide corresponding to LCD 1 of NCoA-1; NCoA-1 LCD1 (aa 631–647) (SQTSHKLVQLLTTTAEQ; UniProt P70365 631-647, looked up, fragment)",inhibition of interaction between liganded RAR and NCoA-1 in vitro,liganded RAR and NCoA-1,less effective
B1,binding result,[3],no binding
B2,effect on interferon γ-dependent (STAT) gene activation,[1],blocked
same,effect on retinoic acid-dependent gene activation by RAR,[2],completely inhibited
same,effect on retinoic acid-dependent gene activation by RAR,[2]; listed as amino acids 947 to 1084 of p/CIP,inhibits
same,effect on SP-1 / CMV control promoters (non-CBP-dependent),[4],did not block
same,effect on TPA-dependent transcriptional activation,[5],blocked
